# Test results reported in patent publication US20260158009A1 (GENZYME CORPORATION, priority 2023, published 2026).
# pIC50: −log10 of the molar value.
# Tests used:
# [1] = biological target: T1, hRIPK1 (aa 1-375) fusion protein (Homo sapiens, UniProt Q13546); assay: ADP-Glo kinase assay: catalytic activity of RIPK1 (autophosphorylation, conversion of ATP to ADP); format: biochemical
# T1 construct: hRIPK1 (aa 1-375) fusion protein
# T1 sequence (Q13546 1-375): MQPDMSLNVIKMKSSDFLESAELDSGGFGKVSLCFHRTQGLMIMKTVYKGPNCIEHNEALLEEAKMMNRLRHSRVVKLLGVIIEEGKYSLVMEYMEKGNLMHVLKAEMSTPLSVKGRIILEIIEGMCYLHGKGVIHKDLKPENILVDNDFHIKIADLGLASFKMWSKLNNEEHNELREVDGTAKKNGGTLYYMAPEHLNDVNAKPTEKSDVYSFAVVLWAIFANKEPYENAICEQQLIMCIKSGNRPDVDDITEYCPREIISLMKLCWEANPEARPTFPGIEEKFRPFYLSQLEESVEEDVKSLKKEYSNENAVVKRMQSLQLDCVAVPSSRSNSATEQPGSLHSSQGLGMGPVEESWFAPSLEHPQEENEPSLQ
# Procedure, shortened: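 hRIPK1 (aa 1-375) fusion protein (3.6 μg/ml final) was preincubated 30 min at rt with compound (33300-1.69 nM, 1% DMSO), then 50 μM ATP was added for 240 min at rt. ADP from autophosphorylation was measured by ADP-Glo luminescence and curves fitted by nonlinear regression.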
# [2] = tested on: U937 cells; assay: Cellular assay in U937 cells: activity of RIPK1 inhibitors on TNFα/zVAD.fmk-induced cell death (necroptosis), CellTiter 96 AQueous (MTS) readout; format: cell-based; conditions: Homo sapiens, U-937
# Procedure, shortened: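 Necroptosis was measured by viable-cell MTS reduction (4 h, absorbance 490 nm) after overnight (18–24 h) 37° C culture. Cell suspensions of U937 cells carried TNFα (100 ng/ml) plus zVAD.fmk (50 μM) before compound was added. A 10-point curve (10 μM–0.26 nM or 1 μM–0.07 nM) was run in duplicate, normalised to the control lacking TNFα/zVAD.fmk.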
pIC50 [1],Compound,pIC50 [2]
7.57,"Cc1nc(C[C@H]2CC[C@H](C(=O)N3OCC[C@H]3c3cnccn3)CC2)cs1 [compound 240, trans-[4-[(2-methylthiazol-4-yl)methyl]cyclohexyl]-[(3S)-3-pyrazin-2-ylisoxazolidin-2-yl]methanone]",7.28
8.30,"CNC(=O)c1cc(F)cc(C[C@H]2CC[C@H](C(=O)N3OCC[C@H]3c3ccc(F)cc3)CC2)c1 [compound 165, trans-3-fluoro-5-[[4-[(3S)-3-(4-fluorophenyl)isoxazolidine-2-carbonyl]cyclohexyl]methyl]-N-methyl-benzamide]",8.15
7.20,"Cc1nc([C@@H]2CCON2C(=O)[C@H]2CC[C@H](Cc3ccc4nnc(C)n4c3C)CC2)cs1 [compound 375, [4-(3,5-Dimethyl-[1,2,4]triazolo[4,3-a]pyridin-6-ylmethyl)-cyclohexyl]-[(S)-3-(2-methyl-thiazol-4-yl)-isoxazolidin-2-yl]-methanone]",8.00
7.23,"Cc1cncc([C@@H]2CCON2C(=O)[C@H]2CC[C@H](Cc3cc(C)c4nc(C)nn4c3)CC2)c1 [compound 378, trans-[4-[(2,8-dimethyl-[1,2,4]triazolo[1,5-a]pyridin-6-yl)methyl]cyclohexyl]-[(3S)-3-(5-methylpyridin-3-yl)-1,2-oxazolidin-2-yl]methanone]",7.02
7.54,"N#Cc1ccc2cnn(C[C@H]3CC[C@H](C(=O)N4OCC[C@H]4c4cnccn4)CC3)c2c1 [compound 200, trans-1-[[4-[(3S)-3-pyrazin-2-ylisoxazolidine-2-carbonyl]cyclohexyl]methyl]indazole-6-carbonitrile]",8.40
7.52,"N#Cc1cnc2cnn(C[C@H]3CC[C@H](C(=O)N4OCC[C@H]4c4cnccn4)CC3)c2c1 [compound 137, trans-1-[[4-[(3S)-3-pyrazin-2-ylisoxazolidine-2-carbonyl]cyclohexyl]methyl]pyrazolo[4,3-b]pyridine-6-carbonitrile]",7.34
7.15,Cc1nc2c(F)cc(C[C@H]3CC[C@H](C(=O)N4OCC[C@H]4c4cncc(F)c4)CC3)cn2n1 [compound 380],6.89
7.77,"Cc1nc([C@@H]2CCON2C(=O)[C@H]2CC[C@H](Cn3ccc4ncc(C#N)cc43)CC2)cs1 [compound 198, trans-1-[[4-[(3S)-3-(2-methylthiazol-4-yl)isoxazolidine-2-carbonyl]cyclohexyl]methyl]pyrrolo[3,2-b]pyridine-6-carbonitrile]",8.15
8.15,"Cc1nc([C@@H]2CCON2C(=O)[C@H]2CC[C@H](Cc3ccc(C)c(C(N)=O)c3)CC2)cs1 [compound 159, trans-2-methyl-5-[[4-[(3S)-3-(2-methylthiazol-4-yl)isoxazolidine-2-carbonyl]cyclohexyl]methyl]benzamide]",7.32
7.29,"Cc1nc2c(C)cc(C[C@H]3CC[C@H](C(=O)N4OCC[C@H]4c4cnccn4)CC3)cn2n1 [compound 326, trans-[4-[(2,8-dimethyl-[1,2,4]triazolo[1,5-a]pyridin-6-yl)methyl]cyclohexyl]-[(3S)-3-pyrazin-2-ylisoxazolidin-2-yl]methanone]",7.23

# The remaining lines, values behind:
Compound,pIC50 [1],pIC50 [2]
"Cc1ccc(CC23CCC(C(=O)N4OCC[C@H]4c4cc(F)cc(F)c4)(CC2)CC3)cc1C(N)=O [compound 273, 5-[[4-[(3S)-3-(3,5-difluorophenyl)-1,2-oxazolidine-2-carbonyl]-1-bicyclo[2.2.2]octanyl]methyl]-2-methylbenzamide]",7.82,8.05
"N#Cc1cnc2ccn(C[C@H]3CC[C@H](C(=O)N4OCC[C@H]4c4cnccn4)CC3)c2c1 [compound 134, trans-1-[[4-[(3S)-3-pyrazin-2-ylisoxazolidine-2-carbonyl]cyclohexyl]methyl]pyrrolo[3,2-b]pyridine-6-carbonitrile]",7.57,7.60
"N#Cc1cncc([C@@H]2CCON2C(=O)[C@H]2CC[C@H](Cn3ccc4ncc(F)cc43)CC2)c1 [compound 123, trans-5-((S)-2-(4-((6-fluoro-1H-pyrrolo[3,2-b]pyridin-1-yl)methyl)cyclohexane-1-carbonyl)isoxazolidin-3-yl)nicotinonitrile]",7.34,7.92
"Cc1ncc(C[C@H]2CC[C@H](C(=O)N3OCC[C@H]3c3cnc(C)c(F)c3)CC2)c(C(F)(F)F)n1 [compound 399, [(3S)-3-(5-fluoro-6-methylpyridin-3-yl)-1,2-oxazolidin-2-yl]-[4-[[2-methyl-4-(trifluoromethyl)pyrimidin-5-yl]methyl]cyclohexyl]methanone]",7.07,6.56
"N#Cc1cc(F)cc([C@@H]2CCON2C(=O)[C@H]2CC[C@H](Cn3cc4ncc(C#N)cc4n3)CC2)c1 [compound 24, trans-2-((4-((S)-3-(3-cyano-5-fluorophenyl)isoxazolidine-2-carbonyl)cyclohexyl)methyl)-2H-pyrazolo[4,3-b]pyridine-6-carbonitrile]",6.96,6.33
"N#Cc1cc(F)cc([C@@H]2CCON2C(=O)[C@H]2CC[C@H](Cn3cc4ccc(C#N)cc4n3)CC2)c1 [compound 30, trans-2-((4-((S)-3-(3-cyano-5-fluorophenyl)isoxazolidine-2-carbonyl)cyclohexyl)methyl)-2H-indazole-6-carbonitrile]",7.41,7.17
"O=C([C@H]1CC[C@H](Cc2cc(F)c3ncnn3c2)CC1)N1OCC[C@H]1c1cnccn1 [compound 205, trans-[4-[(8-fluoro-[1,2,4]triazolo[1,5-a]pyridin-6-yl)methyl]cyclohexyl]-[(3S)-3-pyrazin-2-ylisoxazolidin-2-yl]methanone]",7.51,6.95
"Cc1ccc([C@@H]2CCON2C(=O)[C@H]2CC[C@H](Cc3ccn4nc(C)nc4c3)CC2)cn1 [compound 373, trans-[(S)-3-(6-Methyl-pyridin-3-yl)-isoxazolidin-2-yl]-[4-(2-methyl-[1,2,4]triazolo[1,5-a]pyridin-7-ylmethyl)-cyclohexyl]-methanone]",6.96,7.11
"Cc1ccc([C@@H]2CCON2C(=O)[C@H]2CC[C@H](Cc3cc(C)ncc3Cl)CC2)cn1 [compound 389, trans-[4-[(5-chloro-2-methylpyridin-4-yl)methyl]cyclohexyl]-[(3S)-3-(6-methylpyridin-3-yl)-1,2-oxazolidin-2-yl]methanone]",7.70,7.89
"NC(=O)c1ccc2c(cnn2C[C@H]2CC[C@H](C(=O)N3OCC[C@H]3c3cc(F)cc(F)c3)CC2)c1 [compound 73, trans-1-((4-((S)-3-(3,5-difluorophenyl)isoxazolidine-2-carbonyl)cyclohexyl)methyl)-1H-indazole-5-carboxamide]",7.62,8.05
"N#Cc1cc(F)cc([C@@H]2CCON2C(=O)[C@H]2CC[C@H](Cn3cnc4cc(F)c(C#N)cc43)CC2)c1 [compound 13, trans-1-((4-((S)-3-(3-cyano-5-fluorophenyl)isoxazolidine-2-carbonyl)cyclohexyl)methyl)-5-fluoro-1H-benzo[d]imidazole-6-carbonitrile]",7.48,8.30
"N#Cc1cc(F)cc([C@@H]2CCON2C(=O)[C@H]2CC[C@H](Cn3ccc4ncc(O)cc43)CC2)c1 [compound 129, trans-3-fluoro-5-[(3S)-2-[4-[(6-hydroxypyrrolo[3,2-b]pyridin-1-yl)methyl]cyclohexanecarbonyl]isoxazolidin-3-yl]benzonitrile]",7.54,8.15
"Cc1cn2ncc(C[C@H]3CC[C@H](C(=O)N4OCC[C@H]4c4cnccn4)CC3)cc2n1 [compound 349, trams-[4-[(2-methylimidazo[1,2-b]pyridazin-7-yl)methyl]cyclohexyl]-[(3S)-3-pyrazin-2-yl-1,2-oxazolidin-2-yl]methanone]",7.38,6.97
"NC(=O)c1cnc2cnn(C[C@H]3CC[C@H](C(=O)N4OCC[C@H]4c4cc(F)cc(F)c4)CC3)c2c1 [compound 79, trans-1-((4-((S)-3-(3,5-difluorophenyl)isoxazolidine-2-carbonyl)cyclohexyl)methyl)-1H-pyrazolo[4,3-b]pyridine-6-carboxamide]",7.66,7.89
"Cc1ncc([C@@H]2CCON2C(=O)[C@H]2CC[C@H](Cc3cc(F)c4ncnn4c3)CC2)cc1F [compound 392, trans-[(3S)-3-(5-fluoro-6-methylpyridin-3-yl)-1,2-oxazolidin-2-yl]-[4-[(8-fluoro-[1,2,4]triazolo[1,5-a]pyridin-6-yl)methyl]cyclohexyl]methanone]",7.49,7.74
"O=C([C@H]1CC[C@H](Cc2cc(F)cc(CCO)c2)CC1)N1OCC[C@H]1c1cc(F)cc(F)c1 [compound 283, trans-[(3S)-3-(3,5-difluorophenyl)isoxazolidin-2-yl]-[4-[[3-fluoro-5-(2-hydroxyethyl)phenyl]methyl]cyclohexyl]methanone]",7.80,7.89
